Results from US8183238B2, “Bicyclic and tricyclic compounds as KAT II inhibitors” (priority 2009, dated 2012).
Where a name gives a salt, the structure may show the parent alone.

The compounds below were run against human KAT II (hKAT II) enzyme (Homo sapiens, UniProt Q8N5Z0) (assay: KAT II Inhibition Spectra Assay). Conditions: Table 6; hKAT II, decrease in OD370, 37° C., 15-20 h; read-out: KATII IC50.
Format: biochemical
Outline: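 hKAT II (15 nM, 3× stock) converts L-kynurenine (3 mM, 3× stock) with α-ketoglutarate and PLP in Tris acetate; 15–20 h at 37 °C. Inhibition of the OD370 decrease read versus DMSO wells across a concentration range gives IC50.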

Sequence of human KAT II (hKAT II) enzyme (Q8N5Z0 30-425): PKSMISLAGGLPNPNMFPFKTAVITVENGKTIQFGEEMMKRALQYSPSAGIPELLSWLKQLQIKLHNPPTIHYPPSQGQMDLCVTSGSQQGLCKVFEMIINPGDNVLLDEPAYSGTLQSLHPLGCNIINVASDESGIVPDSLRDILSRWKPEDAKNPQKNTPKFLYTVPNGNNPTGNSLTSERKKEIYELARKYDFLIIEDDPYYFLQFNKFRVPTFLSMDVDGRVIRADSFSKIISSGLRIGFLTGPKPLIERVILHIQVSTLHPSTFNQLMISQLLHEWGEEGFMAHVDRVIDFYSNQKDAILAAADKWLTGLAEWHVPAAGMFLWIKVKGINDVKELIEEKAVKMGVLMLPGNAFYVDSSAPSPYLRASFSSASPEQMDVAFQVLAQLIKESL

SMILES	IC50 [nM]
N[C@H]1Cc2cc(-c3cccc(F)c3)ccc2N(O)C1=O [Example 139, (3S)-3-amino-6-(3-fluorophenyl)-1-hydroxy-3,4-dihydroquinolin-2(1H)-one, trifluoroacetate salt]	66.1
N[C@H]1Cc2cc(-c3ccc(Cl)cc3)ccc2N(O)C1=O [Example 140, (3S)-3-amino-6-(4-chlorophenyl)-1-hydroxy-3,4-dihydroquinolin-2(1H)-one, trifluoroacetate salt]	252
CCOc1ccccc1-c1ccc2c(c1)C[C@H](N)C(=O)N2O [Example 141, (3S)-3-amino-6-(2-ethoxyphenyl)-1-hydroxy-3,4-dihydroquinolin-2(1H)-one, trifluoroacetate salt]	283
N[C@H]1Cc2cc(-c3ccc(F)cc3)ccc2N(O)C1=O [Example 142, (3S)-3-amino-6-(4-fluorophenyl)-1-hydroxy-3,4-dihydroquinolin-2(1H)-one, trifluoroacetate salt]	102
N[C@H]1Cc2cc(-c3cccc(Cl)c3)ccc2N(O)C1=O [Example 143, (3S)-3-amino-6-(3-chlorophenyl)-1-hydroxy-3,4-dihydroquinolin-2(1H)-one, trifluoroacetate salt]	96
N[C@H]1Cc2cc(-c3cccc(C(F)(F)F)c3)ccc2N(O)C1=O [Example 144, (3S)-3-amino-1-hydroxy-6-[3-(trifluoromethyl)phenyl]-3,4-dihydroquinolin-2(1H)-one, trifluoroacetate salt]	145
N[C@H]1Cc2cc(-c3cccc(Cl)c3Cl)ccc2N(O)C1=O [Example 145, (3S)-3-amino-6-(2,3-dichlorophenyl)-1-hydroxy-3,4-dihydroquinolin-2(1H)-one, trifluoroacetate salt]	179
Cc1cccc(-c2ccc3c(c2)C[C@H](N)C(=O)N3O)c1 [Example 146, (3S)-3-amino-1-hydroxy-6-(3-methylphenyl)-3,4-dihydroquinolin-2(1H)-one, trifluoroacetate salt]	78.6
N[C@H]1Cc2cc(-c3ccc(F)cc3F)ccc2N(O)C1=O [Example 147, (3S)-3-amino-6-(2,4-difluorophenyl)-1-hydroxy-3,4-dihydroquinolin-2(1H)-one, trifluoroacetate salt]	75.6
N[C@H]1Cc2cc(-c3c(F)cccc3F)ccc2N(O)C1=O [Example 148, (3S)-3-amino-6-(2,6-difluorophenyl)-1-hydroxy-3,4-dihydroquinolin-2(1H)-one, trifluoroacetate salt]	76.1
CCc1ccccc1-c1ccc2c(c1)C[C@H](N)C(=O)N2O [Example 149, (3S)-3-amino-6-(2-ethylphenyl)-1-hydroxy-3,4-dihydroquinolin-2(1H)-one, trifluoroacetate salt]	118
N[C@H]1Cc2cc(-c3ccccc3)ccc2N(O)C1=O [Example 150, (3S)-3-amino-1-hydroxy-6-phenyl-3,4-dihydroquinolin-2(1H)-one, trifluoroacetate salt]	96.7
COc1ncccc1-c1ccc2c(c1)C[C@H](N)C(=O)N2O [Example 151, (3S)-3-amino-1-hydroxy-6-(2-methoxypyridin-3-yl)-3,4-dihydroquinolin-2(1H)-one, trifluoroacetate salt]	63.6
N[C@H]1Cc2cc(-c3cc(F)ccc3Cl)ccc2N(O)C1=O [Example 152, (3S)-3-amino-6-(2-chloro-5-fluorophenyl)-1-hydroxy-3,4-dihydroquinolin-2(1H)-one, trifluoroacetate salt]	94
COc1ccc(-c2ccc3c(c2)C[C@H](N)C(=O)N3O)cc1 [Example 153, (3S)-3-amino-1-hydroxy-6-(4-methoxyphenyl)-3,4-dihydroquinolin-2(1H)-one, trifluoroacetate salt]	162
N[C@H]1Cc2cc(-c3ccccc3Cl)ccc2N(O)C1=O [Example 154, (3S)-3-amino-6-(2-chlorophenyl)-1-hydroxy-3,4-dihydroquinolin-2(1H)-one, trifluoroacetate salt]	96.5
COc1cccc(-c2ccc3c(c2)C[C@H](N)C(=O)N3O)c1 [Example 155, (3S)-3-amino-1-hydroxy-6-(3-methoxyphenyl)-3,4-dihydroquinolin-2(1H)-one, trifluoroacetate salt]	136
N[C@H]1Cc2cc(Oc3ccc(F)c(Cl)c3)ccc2N(O)C1=O [Example 156, (3S)-3-amino-6-(3-chloro-4-fluorophenoxy)-1-hydroxy-3,4-dihydroquinolin-2(1H)-one, trifluoroacetate salt]	86.7
N[C@H]1Cc2cc(Oc3cc(F)ccc3F)ccc2N(O)C1=O [Example 157, (3S)-3-amino-6-(2,5-difluorophenoxy)-1-hydroxy-3,4-dihydroquinolin-2(1H)-one, trifluoroacetate salt]	68.5
N[C@H]1Cc2cc(Oc3ccc(Cl)c(C(F)(F)F)c3)ccc2N(O)C1=O [Example 158, (3S)-3-amino-6-[4-chloro-3-(trifluoromethyl)phenoxy]-1-hydroxy-3,4-dihydroquinolin-2(1H)-one, trifluoroacetate salt]	126
N[C@H]1Cc2cc(Oc3ccc(F)c(C(F)(F)F)c3)ccc2N(O)C1=O [Example 159, (3S)-3-amino-6-[4-fluoro-3-(trifluoromethyl)phenoxy]-1-hydroxy-3,4-dihydroquinolin-2(1H)-one, trifluoroacetate salt]	109
N[C@H]1Cc2cc(Oc3cccc(C(F)(F)F)c3F)ccc2N(O)C1=O [Example 160, (3S)-3-amino-6-[2-fluoro-3-(trifluoromethyl)phenoxy]-1-hydroxy-3,4-dihydroquinolin-2(1H)-one, trifluoroacetate salt]	101
N[C@H]1Cc2cc(Oc3ccc(F)cc3Cl)ccc2N(O)C1=O [Example 161, (3S)-3-amino-6-(2-chloro-4-fluorophenoxy)-1-hydroxy-3,4-dihydroquinolin-2(1H)-one, trifluoroacetate salt]	54
N[C@H]1Cc2cc(Oc3ccc(F)c(F)c3)ccc2N(O)C1=O [Example 162, (3S)-3-amino-6-(3,4-difluorophenoxy)-1-hydroxy-3,4-dihydroquinolin-2(1H)-one, trifluoroacetate salt]	46.7
N[C@H]1Cc2cc(Oc3ccc(Cl)c(Cl)c3)ccc2N(O)C1=O [Example 163, (3S)-3-amino-6-(3,4-dichlorophenoxy)-1-hydroxy-3,4-dihydroquinolin-2(1H)-one, trifluoroacetate salt]	60
N#Cc1ccc(Oc2ccc3c(c2)C[C@H](N)C(=O)N3O)cc1C(F)(F)F [Example 164, 4-{[(3S)-3-amino-1-hydroxy-2-oxo-1,2,3,4-tetrahydroquinolin-6-yl]oxy}-2-(trifluoromethyl)benzonitrile, trifluoroacetate salt]	42.2
Cc1ccc(F)cc1Oc1ccc2c(c1)C[C@H](N)C(=O)N2O [Example 165, (3S)-3-amino-6-(5-fluoro-2-methylphenoxy)-1-hydroxy-3,4-dihydroquinolin-2(1H)-one, trifluoroacetate salt]	96.6
N[C@H]1Cc2cc(Oc3cc(F)cc(C(F)(F)F)c3)ccc2N(O)C1=O [Example 166, (3S)-3-amino-6-[3-fluoro-5-(trifluoromethyl)phenoxy]-1-hydroxy-3,4-dihydroquinolin-2(1H)-one, trifluoroacetate salt]	128
